Assay results reported in patent publication US20020193422A1, “Anthranilamides and methods of their use” (priority 2001, published 2002).

biological target: T1, Human Kv1.5 channels (Homo sapiens, UniProt P22460); experiment: Kv1.5 currents in Xenopus oocytes, two-microelectrode voltage clamp; type: cell-based; conditions: human Kv1.5 expressed in Xenopus laevis oocytes; 500 ms voltage jumps to 0 mV and 40 mV; room temperature; percentage inhibition of control current fitted with Hill equation
T1 construct: expressed in transfected cells; host or cells: Xenopus laevis oocytes (injected with in vitro synthesized Kv1.5 coding RNA)
T1 sequence (P22460 whole entry): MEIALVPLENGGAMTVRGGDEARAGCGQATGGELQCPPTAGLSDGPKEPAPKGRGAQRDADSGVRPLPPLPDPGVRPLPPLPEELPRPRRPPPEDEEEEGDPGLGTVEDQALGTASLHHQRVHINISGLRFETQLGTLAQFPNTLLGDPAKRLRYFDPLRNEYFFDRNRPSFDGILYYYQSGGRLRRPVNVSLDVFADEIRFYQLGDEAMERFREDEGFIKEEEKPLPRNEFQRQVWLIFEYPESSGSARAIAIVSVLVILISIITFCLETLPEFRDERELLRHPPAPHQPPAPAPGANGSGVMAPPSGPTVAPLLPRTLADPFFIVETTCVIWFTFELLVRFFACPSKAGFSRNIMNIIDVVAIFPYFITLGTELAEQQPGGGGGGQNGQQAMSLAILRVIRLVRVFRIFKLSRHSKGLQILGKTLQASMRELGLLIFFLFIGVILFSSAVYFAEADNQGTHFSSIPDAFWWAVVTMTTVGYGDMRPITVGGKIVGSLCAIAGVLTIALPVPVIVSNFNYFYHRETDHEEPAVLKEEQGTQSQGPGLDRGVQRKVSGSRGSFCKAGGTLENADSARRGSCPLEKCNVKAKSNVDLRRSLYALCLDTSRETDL
Experimental: Human Kv1.5 channels were expressed in xenopus oocytes. For this purpose, oocytes from Xenopus laevis were first isolated and defolliculated. Kv1.5 coding RNA synthesized in vitro was then injected into these oocytes. After Kv1.5 protein expression for 1-7 days, Kv1.5 currents were measured in the oocytes using the two-microelectrode voltage clamp technique. The Kv1.5 channels were activated here with 500 ms voltage jumps to 0 mV and 40 mV. The bath was flushed with a solution of the following: NaCl 96 mM, KCl 2 mM, CaCl2 1.8 mM, MgCl2 1 mM, HEPES 5 mM (titrated with NaOH to pH 7.4). These experiments were carried out at room temperature. The following were used for data collection and analysis: Geneclamp amplifier (Axon Instruments, Foster City, USA) and MacLab D/A converter and software (ADInstruments, Castle Hill, Australia). The compounds according to the invention were tested by adding them to the bath solution in different concentrations. The effects of the compounds were calculated as percentage inhibition of the Kv1.5 control current which was obtained when no compound was added to the solution. The data were then extrapolated using the Hill equation, in order to determine the inhibitory concentrations (IC50) for the respective compounds.

IC50	SMILES
3 µM	COc1ccc(NS(=O)(=O)c2cccc(C(F)(F)F)c2)c(C(=O)NCCc2cccs2)c1 [Example 1]
4.1 µM	COc1ccc(S(=O)(=O)Nc2cc(F)ccc2C(=O)N(C)Cc2ccccc2)cc1 [Example 2]
2.1 µM	COc1ccc(NS(=O)(=O)c2ccc(C)cc2)c(C(=O)NCc2ccc(C)o2)c1 [Example 3]
2.4 µM	Cc1cccc(NS(=O)(=O)c2ccc(Cl)cc2)c1C(=O)NCc1ccc(Cl)cc1 [Example 4]
3.2 µM	CCN(Cc1ccccc1)C(=O)c1ccccc1NS(=O)(=O)c1ccc(Cl)cc1 [Example 5]
4.1 µM	Cc1ccc(S(=O)(=O)Nc2ccccc2C(=O)NCc2ccccc2)cc1 [Example 6]
5 µM	CCN(Cc1ccccc1)C(=O)c1ccccc1NS(=O)(=O)c1ccc(C)cc1 [Example 7]
4.6 µM	Cc1ccc(S(=O)(=O)Nc2ccccc2C(=O)N(C)CCc2ccccc2)cc1 [Example 8]
4.7 µM	CCN(Cc1ccccc1)C(=O)c1ccccc1NS(=O)(=O)c1ccccc1 [Example 9]
3.8 µM	O=C(NCCc1ccccc1)c1ccccc1NS(=O)(=O)c1ccccc1 [Example 10]
3.7 µM	CN(CCc1ccccc1)C(=O)c1ccccc1NS(=O)(=O)c1ccccc1 [Example 11]
3.6 µM	Cc1ccc(S(=O)(=O)Nc2ccc(F)cc2C(=O)NCc2ccccc2)cc1 [Example 12]
3.7 µM	CCN(Cc1ccccc1)C(=O)c1cc(F)ccc1NS(=O)(=O)c1ccc(C)cc1 [Example 13]
4.1 µM	Cc1ccc(S(=O)(=O)Nc2ccc(F)cc2C(=O)NCCc2ccccc2)cc1 [Example 14]
4.5 µM	COc1ccc(S(=O)(=O)Nc2ccc(OC)cc2C(=O)N(C)Cc2ccccc2)cc1 [Example 15]
3.3 µM	COc1ccc(CNC(=O)c2cc(OC)ccc2NS(=O)(=O)c2ccc(Cl)cc2)cc1 [Example 16]
1.6 µM	CCN(C(=O)c1cc(C)ccc1NS(=O)(=O)c1ccc(C)cc1)c1ccccc1 [Example 17]
3.5 µM	Cc1ccc(S(=O)(=O)Nc2ccccc2C(=O)NCc2cccc(C)c2)cc1 [Example 18]
2.6 µM	COc1ccc(NS(=O)(=O)c2ccc(C)cc2)c(C(=O)NCCc2cccs2)c1 [Example 19]
3.8 µM	Cc1ccc(CNC(=O)c2c(C)cccc2NS(=O)(=O)c2ccc(C)c(Cl)c2)o1 [Example 20]
6.1 µM	CCCCS(=O)(=O)Nc1ccc(C)cc1C(=O)NCc1ccc(Cl)cc1 [Example 21]
6 µM	O=C(NCc1ccccc1)c1cc(Cl)ccc1NS(=O)(=O)c1ccc(Cl)cc1 [Example 22]
6.9 µM	COc1ccc(NS(=O)(=O)c2cccc3cccnc23)c(C(=O)NCCc2ccc(OC)c(OC)c2)c1 [Example 23]
4.6 µM	CN(Cc1ccccc1)C(=O)c1ccccc1NS(=O)(=O)c1cccc2cccnc12 [Example 24]
4.2 µM	CCc1ccc(S(=O)(=O)Nc2ccccc2C(=O)N(CC)c2ccccc2)cc1 [Example 25]
5.6 µM	CCN(C(=O)c1ccccc1NS(=O)(=O)c1ccc2ccccc2c1)c1ccccc1 [Example 26]
3 µM	CCN(C(=O)c1ccccc1NS(=O)(=O)c1ccc(C)cc1OC)c1ccccc1 [Example 27]
1.2 µM	CCN(C(=O)c1ccccc1NS(=O)(=O)c1cccc2cccnc12)c1ccccc1 [Example 28]
1.9 µM	CCN(C(=O)c1ccccc1NS(=O)(=O)c1cccc2ccccc12)c1ccccc1 [Example 29]
